Calls of active or inactive are those of the source.
Key:
[1] = Luminescent dose response cell-based high throughput screening assay for inhibitors of the Janus kinase 2 mutant JAK2V617F. [Related pubchem assays: 1446 (Primary screen.), 1521 (Confirmation assay.), 1486 (Counter screen.)]; type: functional
[2] = microbe, parasite or virus in culture; type: functional; conditions: Mycobacterium tuberculosis
[3] = Vero E6 cell cytotoxicity, dose response, cytotoxicity control for non-replicating M. tuberculosis project, secondary assay (AID 492998); type: functional, VeroE6; conditions: Vero C1008
[4] = cells; type: functional
[5] = molecular target: T1, Estrogen receptor (Homo sapiens, UniProt P03372); assay: blockers of SRC-3 recruitment to ERα – biochemical, ELISA, streptavidin-HRP readout, orthogonal assay, confirmation (AID 1079)
T1 sequence (P03372 whole entry): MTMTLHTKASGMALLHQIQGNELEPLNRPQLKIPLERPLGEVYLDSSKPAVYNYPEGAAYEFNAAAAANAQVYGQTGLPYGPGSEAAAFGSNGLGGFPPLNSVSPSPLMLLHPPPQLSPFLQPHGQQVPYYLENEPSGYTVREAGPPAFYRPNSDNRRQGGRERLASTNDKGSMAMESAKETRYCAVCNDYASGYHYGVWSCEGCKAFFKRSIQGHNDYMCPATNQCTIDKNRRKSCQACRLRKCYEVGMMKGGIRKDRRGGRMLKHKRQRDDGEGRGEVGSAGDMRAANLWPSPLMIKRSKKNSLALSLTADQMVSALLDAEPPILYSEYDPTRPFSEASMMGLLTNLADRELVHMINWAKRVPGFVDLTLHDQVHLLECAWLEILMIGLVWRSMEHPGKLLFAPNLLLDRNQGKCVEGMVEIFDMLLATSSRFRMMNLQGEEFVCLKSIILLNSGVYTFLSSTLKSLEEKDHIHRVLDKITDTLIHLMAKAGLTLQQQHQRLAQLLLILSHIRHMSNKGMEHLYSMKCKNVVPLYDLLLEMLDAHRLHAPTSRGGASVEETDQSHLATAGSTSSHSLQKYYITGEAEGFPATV

[6] = molecular target: Solute carrier family 12 member 2/member 5 (Homo sapiens, UniProt P55011+Q9H2X9); assay: KCC2 and NKCC1 inhibition by rubidium flux, cell-based, NKCC1 counter-screen (AID 1734); type: functional, HEK293
[7] = molecular target: T1, Estrogen receptor; assay: ERα coactivator recruitment enhancers – biochemical, TR-FRET, ERα LBD, dose response (AID 737)
[8] = Trypanosoma cruzi growth suppression in host cells – NIH3T3 host cells, beta-gal luminescence, confirmation (AID 2044); type: functional, cell-based;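 also: intracellular parasites grown in NIH/3T3 mouse fibroblasts as host cells; luminescent beta-galactosidase reporter signal from transgenic T. cruzi replicating inside host cells; inhibitors lower the luminescence signal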
[9] = NIH3T3 cell viability loss – ATP luminescence, mouse fibroblasts, counter-screen, dose response (AID 2010); type: functional, cell-based;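 also: cells exposed to compound for about 90 hours before reading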
[10] = cells
[11] = molecular target: E3 ubiquitin-protein ligase Mdm2 (Homo sapiens, UniProt Q00987); assay: MDM2-luc reporter signal enhancers, multi-concentration potency testing, MDM2 ubiquitin-protein ligase inhibitor program, whole-cell format, luminescence detection, 384-well microplate (AID 1394); type: functional;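 also: MDM2 E3 inhibitors raise luminescence so EC50 is for signal enhancement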
Chain of E3 ubiquitin-protein ligase Mdm2 (Q00987 whole entry): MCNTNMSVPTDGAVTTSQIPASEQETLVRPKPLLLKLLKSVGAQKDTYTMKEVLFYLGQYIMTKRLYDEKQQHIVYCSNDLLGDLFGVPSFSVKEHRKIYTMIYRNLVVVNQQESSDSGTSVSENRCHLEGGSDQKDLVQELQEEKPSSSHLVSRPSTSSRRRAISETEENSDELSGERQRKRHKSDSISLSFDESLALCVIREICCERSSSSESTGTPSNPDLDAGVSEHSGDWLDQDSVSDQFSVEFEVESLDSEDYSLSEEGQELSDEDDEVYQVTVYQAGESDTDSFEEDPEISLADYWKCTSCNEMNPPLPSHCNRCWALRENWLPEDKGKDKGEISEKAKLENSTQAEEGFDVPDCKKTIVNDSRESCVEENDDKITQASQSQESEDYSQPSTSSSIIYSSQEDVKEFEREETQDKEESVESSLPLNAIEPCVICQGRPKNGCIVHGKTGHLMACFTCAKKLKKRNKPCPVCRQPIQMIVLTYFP

[12] = molecular target: Cytochrome P450 2C19 (Homo sapiens, UniProt P33261); assay: Cytochrome panel assay with activity outcomes. Panel member name: p450-cyp2c19 Compounds with AC50 equal or less than 10 uM are considered active; type: functional
Chain of Cytochrome P450 2C19 (P33261 whole entry): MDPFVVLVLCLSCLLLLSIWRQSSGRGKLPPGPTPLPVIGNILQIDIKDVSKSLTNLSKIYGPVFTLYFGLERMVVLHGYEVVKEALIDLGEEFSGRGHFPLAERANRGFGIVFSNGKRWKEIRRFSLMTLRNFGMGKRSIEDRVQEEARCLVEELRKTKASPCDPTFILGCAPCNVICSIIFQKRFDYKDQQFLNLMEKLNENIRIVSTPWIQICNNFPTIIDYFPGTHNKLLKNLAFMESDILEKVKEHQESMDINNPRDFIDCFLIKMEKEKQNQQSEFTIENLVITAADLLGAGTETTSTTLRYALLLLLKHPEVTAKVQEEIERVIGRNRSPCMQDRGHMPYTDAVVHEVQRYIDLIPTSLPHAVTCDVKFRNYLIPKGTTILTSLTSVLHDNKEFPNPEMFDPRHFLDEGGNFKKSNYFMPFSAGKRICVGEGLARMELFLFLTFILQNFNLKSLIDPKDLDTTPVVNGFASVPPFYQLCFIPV

O=C(O)c1[nH]c(=O)[nH]c(=O)c1F
IC50 [1]: 4.12 µM (active) | CC50 [2]: > 40 µM (active) | CC50 [3]: > 20 µM (active) | IC50 [4]: 5.96 µM (active)

O=C(CCCCCn1c(=S)[nH]c2ccccc2c1=O)N1CCN(c2ncccn2)CC1
IC50 [5]: 0.12 µM (not active)

CCCn1c(N)c(C(=O)CSc2nnc(Cc3ccccc3)o2)c(=O)n(C)c1=O
IC50 [6]: 1.6 µM (active)

CC(C)CCNC(=O)COc1ccc2c3c(c(=O)oc2c1)CCC3
EC50 [7]: 13.3 µM (not active)

Cc1c(O)ccc2c(CN3CCN(Cc4ccccc4)CC3)cc(=O)oc12
EC50 [8]: < 0.1 µM (active) | EC50 [9]: > 60 µM (not active) | EC50 [10]: 0.024 µM (active)

CCN1CCN(C(=O)CCc2nc3ccccc3c(=O)[nH]2)CC1
EC50 [11]: 12.5 µM (not active) | AC50 [12]: inconclusive

Source: ChEMBL document CHEMBL1201862, “PubChem BioAssay data set” (2004)
